What was measured:
18-month-old mice = assay: iPTH in aged mice: in vivo micro-MRI of lumbar IVDs; set-up: species or system mouse; conditions: iPTH injection
Protocol: In vivo Spinal IVD imaging was conducted with a horizontal 30-cm-bore 9.4T Bruker Biospec preclinical scanner equipped with custom-built, single-turn volume coil positioned orthogonal to the BO magnetic field. Anesthetization of mice was initiated with 4% isoflurane and maintained with a 2% isoflurane and oxygen mixture. Mice were placed supine on a tray and taped to minimize the motion artifacts. We acquired T2-weighted images using a relaxation enhancement (RARE) sequence with the following parameter: an echo time/repetition time (TE/TR) of 15.17 ms/3,000 ms, 35 slices at thickness of 0.35 mm, field of view (FOV) of 1.75 cm×1.75 cm and matrix size of 256×128. All T2-weighted images were processed to a final matrix size of 256×256 with an isotropic resolution of 0.068 mm pixel-1. For quantification of signal intensity as an indicator of disc tissue hydration, the region of interest at L3-L4 level in each group was selected and measured using Image-Pro Plus Software version 6.

NP cells = assay: iPTH in IFT88-/- and wild-type mice: immunostaining of pSmad2/3, CCN2, ACAN; format: in vivo, mouse
Protocol: The 11 month-old PTH1R^+/+ and PTH1R^−/− male mice were randomized into four groups: PTH1R^+/++PTH (1-34), PTH1R^+/++Vehicle, PTH1R^−/−+PTH (1-34) and PTH1R^−/−+Vehicle groups (n=8 per group). The 11 month-olds IFT88^+/+ and IFT88^−/− male mice were randomized into four groups: IFT88^+/++PTH (1-34), IFT88^+/++Vehicle, IFT88^−/−+PTH (1-34) and IFT88^−/−+Vehicle groups (n=8 per group). Mice were subcutaneously injected with either PTH (1-34) or vehicle (1 mM acetic acid in phosphate buffered saline (PBS) with equivalent volume of PTH) daily, 5 days per week, and all mice were sacrificed 4 weeks after treatment with PTH (1-34)/vehicle.
(§1) For immunocytochemical staining, we incubated GFP labeled NP cells co-stained with primary antibody to rabbit PTH1R PRB-635P (Covance, 1:100) for 1 h and subsequently stained with secondary antibodies conjugated with fluorescence at room temperature. At the time of euthanasia, we dissected and fixed the lumbar vertebral spine in 10% buffered formalin for 48 h, decalcified them in 10% EDTA (pH 7.4) for 14-21 days and embedded them in paraffin or optimal cutting temperature (OCT) compound (Sakura Finetek). Fourmicrometer-thick coronal-oriented sections of the L1-L6 spine were processed for safranin O and fast green staining. Sections for immunostaining was performed using a standard protocol and incubated with primary antibodies to rabbit ACAN (Abcam, 1:100), CCN2 (Abcam, 1:100), integrin β8 (Abcam, 1:200), pCREB (Abcam, 1:100) and PTH1R PRB-635P (Covance, 1:100), mouse pSmad2/3 (Santa Cruz, 1:100), integrin αvβ6 (Millipore, 1:100), integrin αvβ3 (Bioss, 1:100,), integrin αvβ5 (Bioss, 1:100) at 4° C. overnight. For immunohistochemical staining, a horse radish peroxidase-streptavidin detection system (Dako) was subsequently used to detect the immunoactivity, followed by counterstaining with hematoxylin (Sigma-Aldrich). For immunofluorescent assay, the slides were incubated with secondary antibodies conjugated with fluorescence at room temperature for 1 h while avoiding light. We used isotype-matched controls, such as polyclonal rabbit IgG (R&D Systems, AB-105-C) under the same concentrations and conditions as negative controls. We micro photographed sections to perform histomorphometric measurements on the entire area of the L3-L4 of the spine (Olympus DP71).
Quantitative histomorphometric analysis was conducted in a blinded fashion with Image-Pro Plus Software version 6.0 (Media Cybernetics Inc). IVD histological score were obtained as previously described67. Five randomly selected sections per mice in each group at L3-L4 level were chosen for quantitative histomorphometric analysis. The percentage of pSmad2/3 and pCREB positive cells was obtained by counting the number of positive staining cells to the number of total cells in the NP region. The percentage area of CCN2 and ACAN positive staining was calculated by measuring the positive area to the whole area of the L3-L4 in each group.

αvβ integrins = assay: Immunostaining of αvβ integrins in IVD sections of aged mice; format: in vivo, mouse; conditions: 18-month old mice; only αvβ6 among αvβ3, αvβ5, αvβ6, β8
Protocol: as §1, with “We used isotype-matched controls, such as polyclonal rabbit IgG (R&D Systems, AB-105-C) under the same concentrations and conditions as negative controls. We micro photographed sections to perform histomorphometric measurements on the entire area of the L3-L4 of the spine (Olympus DP71).” left out

[1] = wild-type mice relative to vehicle mice

Structure (SMILES): CC[C@H](C)[C@H](NC(=O)[C@H](CCC(=O)O)NC(=O)[C@H](CO)NC(=O)[C@@H](NC(=O)[C@@H](N)CO)C(C)C)C(=O)N[C@@H](CCC(N)=O)C(=O)N[C@@H](CC(C)C)C(=O)N[C@@H](CCSC)C(=O)N[C@@H](Cc1cnc[nH]1)C(=O)N[C@@H](CC(N)=O)C(=O)N[C@@H](CC(C)C)C(=O)NCC(=O)N[C@@H](CCCCN)C(=O)N[C@@H](Cc1cnc[nH]1)C(=O)N[C@@H](CC(C)C)C(=O)N[C@@H](CC(N)=O)C(=O)N[C@@H](CO)C(=O)N[C@@H](CCSC)C(=O)N[C@@H](CCC(=O)O)C(=O)N[C@@H](CCCN=C(N)N)C(=O)N[C@H](C(=O)N[C@@H](CCC(=O)O)C(=O)N[C@@H](Cc1c[nH]c2ccccc12)C(=O)N[C@@H](CC(C)C)C(=O)N[C@@H](CCCN=C(N)N)C(=O)N[C@@H](CCCCN)C(=O)N[C@@H](CCCCN)C(=O)N[C@@H](CC(C)C)C(=O)N[C@@H](CCC(N)=O)C(=O)N[C@@H](CC(=O)O)C(=O)N[C@H](C(=O)N[C@@H](Cc1cnc[nH]1)C(=O)N[C@@H](CC(N)=O)C(=O)N[C@@H](Cc1ccccc1)C(=O)O)C(C)C)C(C)C [PTH (1-34), teriparatide]
- MRI signal intensity of lumbar IVDs (18-month-old mice): significantly increased
- PTH effect on level of CCN2 (NP cells; IFT88-/- mice): blunted
- PTH effect on level of aggrecan (NP cells; IFT88-/- mice): blunted
- PTH effect on number of pSmad2/3+ NP cells (NP cells; IFT88-/- mice): blunted
- level of CCN2 (NP cells; [1]): significantly stimulated
- level of aggrecan (NP cells; [1]): significantly stimulated
- number of pSmad2/3+ NP cells (NP cells; [1]): significantly stimulated
- level of αvβ6 integrin (αvβ integrins): significantly increased

From US20210205638A1, “PARATHYROID HORMONE AND REGENERATION OF DEGENERATIVE DISCS DISEASE” (THE JOHNS HOPKINS UNIVERSITY, priority 2017, published 2021)
